In patent publication US9855268B2, “Triazolo[4,5-d]pyrimidine derivatives” (Merck Patent GmbH, priority 2013, dated 2018):
Read-outs that look alike come from different tables or passages of the source.

Key:
[1] = target: GSK3α(h) (Homo sapiens, UniProt P49840); assay: GSK3α radiometric kinase assay (33P-ATP, phospho GS2 peptide); type: biochemical; conditions: read-out: IC50 GSK3α (enzyme assay)
Summary of the method: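 Human GSK3α incubated with 20 μM phospho-GS2 peptide in 8 mM MOPS pH 7,0, 10 mM Mg-acetate and [γ-33P]ATP (concentration as required), started with MgATP. After 40 minutes at room temperature, stopped with phosphoric acid; 33P incorporation measured by filtermat spotting and scintillation counting.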

[2] = target: GSK3β(h) (Homo sapiens, UniProt P49841); assay: GSK3β radiometric kinase assay (33P-ATP, phospho GS2 peptide); type: biochemical; conditions: read-out: IC50 GSK3β (enzyme assay)
Method: GSK3β(h) is incubated with 8 mM MOPS pH 7,0, 0,2 mM EDTA, 20 μM
[…](p)EDEEE (phosphor GS2 peptide), 10 mM Mg-acetate and [gamma-33P-ATP](specific activity approx. 500 cpm/Pmol, concentration as required). The reaction is initiated by the addition of the MgATP. After incubation for 40 minutes at the room temperature, the Reaction is stopped by the addition of 3% phosphoric acid solution. 10 μL of reaction is then spotted onto a P30 filtermat and washed three times for 5 minutes in 50 mM phosphoric acid and once in methanol prior to drying and scintillation counting.

[3] = target: T1, GCN2 (Homo sapiens, UniProt Q9P2K8); assay: GCN2 enzyme assay (TR-FRET Lanthascreen, GFP-eIF2alpha phosphorylation); type: biochemical; conditions: 10 μM ATP, 80 nM GFP-eIF2a, 30 nM GCN2
Summary of the method: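 Phosphorylation of GFP-eIF2alpha (80 nM) by GCN2 run at room temperature with 10 μM ATP. After EDTA quench, product quantified by Lanthascreen TR-FRET (antibody–GFP complex, 340 nm excitation).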
Target sequence in this assay (Q9P2K8 whole entry, species assumed): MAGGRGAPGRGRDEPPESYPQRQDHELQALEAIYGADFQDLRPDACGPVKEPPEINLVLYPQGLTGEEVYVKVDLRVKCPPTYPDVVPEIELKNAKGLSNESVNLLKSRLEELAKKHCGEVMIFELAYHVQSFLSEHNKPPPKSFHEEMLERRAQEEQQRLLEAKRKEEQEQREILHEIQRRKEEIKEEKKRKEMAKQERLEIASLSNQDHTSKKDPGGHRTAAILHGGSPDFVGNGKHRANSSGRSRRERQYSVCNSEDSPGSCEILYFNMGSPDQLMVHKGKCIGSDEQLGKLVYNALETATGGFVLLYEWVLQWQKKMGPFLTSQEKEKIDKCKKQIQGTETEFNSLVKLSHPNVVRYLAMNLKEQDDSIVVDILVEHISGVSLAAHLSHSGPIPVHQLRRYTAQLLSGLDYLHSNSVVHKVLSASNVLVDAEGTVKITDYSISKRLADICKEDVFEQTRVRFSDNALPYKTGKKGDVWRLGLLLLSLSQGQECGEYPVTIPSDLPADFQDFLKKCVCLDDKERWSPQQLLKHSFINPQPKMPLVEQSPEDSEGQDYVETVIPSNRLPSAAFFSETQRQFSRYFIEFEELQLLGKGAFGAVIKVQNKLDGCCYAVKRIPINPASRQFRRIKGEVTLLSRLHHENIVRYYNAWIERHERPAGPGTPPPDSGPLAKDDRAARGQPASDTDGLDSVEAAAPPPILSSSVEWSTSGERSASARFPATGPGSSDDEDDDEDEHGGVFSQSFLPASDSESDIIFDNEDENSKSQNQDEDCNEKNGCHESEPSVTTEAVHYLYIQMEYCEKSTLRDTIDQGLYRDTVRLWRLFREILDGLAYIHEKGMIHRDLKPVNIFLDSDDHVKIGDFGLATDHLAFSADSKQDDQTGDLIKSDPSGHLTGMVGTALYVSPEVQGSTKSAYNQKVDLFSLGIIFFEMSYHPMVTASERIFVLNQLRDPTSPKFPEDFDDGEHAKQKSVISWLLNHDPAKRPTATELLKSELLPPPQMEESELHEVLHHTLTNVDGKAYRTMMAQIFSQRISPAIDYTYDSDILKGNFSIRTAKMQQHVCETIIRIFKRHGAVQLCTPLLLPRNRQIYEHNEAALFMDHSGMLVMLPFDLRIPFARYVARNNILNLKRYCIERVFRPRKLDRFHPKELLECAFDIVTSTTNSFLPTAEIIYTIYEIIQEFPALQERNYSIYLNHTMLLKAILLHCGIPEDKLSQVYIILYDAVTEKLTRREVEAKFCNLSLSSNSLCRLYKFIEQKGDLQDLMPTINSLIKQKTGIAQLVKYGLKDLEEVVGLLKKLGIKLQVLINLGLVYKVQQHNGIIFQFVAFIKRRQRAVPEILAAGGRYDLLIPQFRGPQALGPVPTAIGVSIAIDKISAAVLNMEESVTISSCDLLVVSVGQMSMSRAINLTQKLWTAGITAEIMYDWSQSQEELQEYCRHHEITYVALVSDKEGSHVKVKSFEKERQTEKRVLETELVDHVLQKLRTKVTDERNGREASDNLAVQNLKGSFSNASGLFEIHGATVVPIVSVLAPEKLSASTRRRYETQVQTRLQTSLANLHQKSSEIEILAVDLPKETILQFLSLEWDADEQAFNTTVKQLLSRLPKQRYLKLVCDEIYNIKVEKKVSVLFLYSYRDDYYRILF

[4] = target: T1, GCN2; assay: Cellular assay of GCN2 activity (phospho-eIF2alpha immunocytochemistry after tryptophanol); type: cell-based; parameters: endogenous in cells; host or cells: U2OS; conditions: Human U2OS cells, 2 h compound, 600 μM tryptophanol 30 min
Method: Cellular Assay for the Determination of Compound Activities
Human U2OS cells (2000 cells/well) are seeded into 384-well plates and incubated for 20 hours.
The next day, the cells are treated with the test compounds and incubated for 2 hours. Then, tryptophanol, at a final concentration of 600 μM, is added to the cells and those are incubated for 30 minutes.
The analysis of cellular GCN2 activities is done by immunocytochemistry.
Briefly, cells are fixated on the well surfaces by formaldehyde and permeabilised with Triton X-100.
The analysis and quantification of phosphorylated GCN2 is done by scanning the plates in the Acumen Explorer system (TTPLabtech). The obtained data are normalised against the untreated control wells (DMSO only) and expressed as % effect values. The determination of IC50 values is done by using the Graph Pad Prism software.
Target sequence in this assay (Q9P2K8 whole entry): as the sequence (Q9P2K8 whole entry, species assumed) above

GSK3α(h), sequence (P49840 whole entry): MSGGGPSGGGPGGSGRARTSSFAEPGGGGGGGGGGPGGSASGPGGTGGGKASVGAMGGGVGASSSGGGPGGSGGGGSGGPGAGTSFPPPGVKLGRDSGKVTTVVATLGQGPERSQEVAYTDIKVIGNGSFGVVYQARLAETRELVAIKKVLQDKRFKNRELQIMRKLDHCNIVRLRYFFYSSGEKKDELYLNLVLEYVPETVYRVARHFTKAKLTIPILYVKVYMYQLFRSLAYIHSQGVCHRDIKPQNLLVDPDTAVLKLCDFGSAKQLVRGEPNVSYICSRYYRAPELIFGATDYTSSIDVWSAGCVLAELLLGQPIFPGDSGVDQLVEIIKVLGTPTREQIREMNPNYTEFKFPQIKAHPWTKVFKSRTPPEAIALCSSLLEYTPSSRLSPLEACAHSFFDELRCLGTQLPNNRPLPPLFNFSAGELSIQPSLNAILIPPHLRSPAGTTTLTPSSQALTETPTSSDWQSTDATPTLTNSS
GSK3β(h), sequence (P49841 whole entry): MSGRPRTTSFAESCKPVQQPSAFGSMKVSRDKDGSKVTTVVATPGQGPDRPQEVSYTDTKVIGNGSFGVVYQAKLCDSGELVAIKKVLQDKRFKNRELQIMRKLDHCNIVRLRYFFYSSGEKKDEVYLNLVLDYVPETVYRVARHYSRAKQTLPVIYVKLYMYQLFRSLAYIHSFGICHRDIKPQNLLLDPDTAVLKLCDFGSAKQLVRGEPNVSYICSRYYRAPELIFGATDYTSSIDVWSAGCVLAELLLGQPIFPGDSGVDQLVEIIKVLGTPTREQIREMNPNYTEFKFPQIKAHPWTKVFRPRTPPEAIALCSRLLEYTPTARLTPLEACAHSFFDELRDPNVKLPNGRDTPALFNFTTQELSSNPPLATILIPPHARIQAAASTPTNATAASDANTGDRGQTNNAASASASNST

SMILES: COc1ccc(-n2nnc3cnc(N[C@@H]4CCC[C@@H](C(N)=O)C4)nc32)cc1 (relative stereo) [A148, (trans)-3-[3-(4-methoxy-phenyl)-3H-[1,2,3]triazolo[4,5-d]pyrimidin-5-ylamino]-cyclohexanecarboxylic acid amide]
- IC50 [1]: < 1000 nM
- IC50 [2]: 1000 to 5000 nM
- IC50 [3]: < 1000 nM

SMILES: Cc1ncc2cc(-n3nnc4cnc(N[C@@H]5CC[C@@H](O)C5)nc43)ccc2n1 (relative stereo) [A209, (trans)-3-[3-(2-methyl-quinazolin-6-yl)-3H-[1,2,3]triazolo[4,5-d]pyrimidin-5-ylamino]-cyclopentanol]
- IC50 [1]: < 1000 nM
- IC50 [2]: < 1000 nM
- IC50 [3]: < 1000 nM

SMILES: COc1ccc(-n2nnc3cnc(N[C@H]4CC[C@H](S(N)(=O)=O)C4)nc32)cc1 (relative stereo) [A288, (trans)-3-[3-(4-methoxy-phenyl)-3H-[1,2,3]triazolo[4,5-d]pyrimidin-5-ylamino]-cyclopentanesulfonic acid amide]
- IC50 [1]: < 1000 nM
- IC50 [2]: < 1000 nM
- IC50 [3]: < 1000 nM

SMILES: COc1ccc(-n2nnc3cnc(N[C@@H]4CCN(c5cnn(C)c5)C4)nc32)cc1 [A115, [3-(4-methoxy-phenyl)-3H-[1,2,3]triazolo[4,5-d]pyrimidin-5-yl]-[(R)-1-(1-methyl-1H-pyrazol-4-yl)-pyrrolidin-3-yl]-amine]
- IC50 [1]: < 1000 nM
- IC50 [2]: < 1000 nM
- IC50 [3]: < 1000 nM

SMILES: N[C@H]1CC[C@@H](Nc2ncc3nnn(-c4ccc5ncccc5c4)c3n2)C1 [A119, (1S,3R)-N3-(3-quinolin-6-yl-3H-[1,2,3]triazolo[4,5-d]pyrimidin-5-yl)-cyclopentane-1,3-diamine]
- IC50 [1]: < 1000 nM
- IC50 [2]: 1000 to 5000 nM
- IC50 [3]: < 1000 nM

SMILES: CN1CCN(CCC(=O)N2CC[C@@H](Nc3ncc4nnn(-c5ccc6ncccc6c5)c4n3)C2)CC1 [A133, 3-(4-methyl-piperazin-1-yl)-1-[(R)-3-(3-quinolin-6-yl-3H-[1,2,3]triazolo[4,5-d]pyrimidin-5-ylamino)-pyrrolidin-1-yl]-propan-1-one]
- IC50 [1]: < 1000 nM
- IC50 [2]: 1000 to 5000 nM
- IC50 [3]: < 1000 nM

SMILES: Cc1ccc2cc(-n3nnc4cnc(N[C@@H]5CCN(C(=O)CCN6CCN(C)CC6)C5)nc43)ccc2n1 [A134, 3-(4-methyl-piperazin-1-yl)-1-{(R)-3-[3-(2-methyl-quinolin-6-yl)-3H-[1,2,3]triazolo[4,5-d]pyrimidin-5-ylamino]-pyrrolidin-1-yl}-propan-1-one]
- IC50 [1]: < 1000 nM
- IC50 [2]: 1000 to 5000 nM
- IC50 [3]: < 1000 nM

SMILES: COc1ccc(-n2nnc3cnc(N[C@@H]4CC[C@H](C(N)=O)C4)nc32)cc1 [A136, (1S,3R)-3-[3-(4-methoxy-phenyl)-3H-[1,2,3]triazolo[4,5-d]pyrimidin-5-ylamino]-cyclopentanecarboxylic acid amide]
- IC50 [1]: < 1000 nM
- IC50 [2]: < 1000 nM
- IC50 [3]: < 1000 nM

SMILES: COc1ccc(-n2nnc3cnc(N[C@H]4CC[C@H](C(N)=O)C4)nc32)cc1 [A137, (1S,3S)-3-[3-(4-methoxy-phenyl)-3H-[1,2,3]triazolo[4,5-d]pyrimidin-5-ylamino]-cyclopentanecarboxylic acid amide]
- IC50 [1]: < 1000 nM
- IC50 [2]: < 1000 nM
- IC50 [3]: < 1000 nM

SMILES: COc1ccc(-n2nnc3cnc(N[C@H]4C[C@H](C(N)=O)C4)nc32)cc1 [A145, (trans)-3-[3-(4-methoxy-phenyl)-3H-[1,2,3]triazolo[4,5-d]pyrimidin-5-ylamino]-cyclobutanecarboxylic acid amide]
- IC50 [1]: < 1000 nM
- IC50 [2]: < 1000 nM
- IC50 [3]: < 1000 nM

SMILES: NC(=O)[C@@H]1CC[C@@H](Nc2ncc3nnn(-c4ccc(N5CCCC5)cc4)c3n2)C1 [A146, (1R,3R)-3-[3-(4-pyrrolidin-1-yl-phenyl)-3H-[1,2,3]triazolo[4,5-d]pyrimidin-5-ylamino]-cyclopentanecarboxylic acid amide]
- IC50 [1]: < 1000 nM
- IC50 [2]: < 1000 nM
- IC50 [3]: < 1000 nM

SMILES: NC(=O)[C@@H]1CC[C@@H](Nc2ncc3nnn(-c4ccc5c(c4)OCCO5)c3n2)C1 [A156, (1R,3R)-3-[3-(2,3-dihydro-benzo[1,4]dioxin-6-yl)-3H-[1,2,3]triazolo[4,5-d]pyrimidin-5-ylamino]-cyclopentanecarboxylic acid amide]
- IC50 [1]: < 1000 nM
- IC50 [2]: < 1000 nM
- IC50 [3]: < 1000 nM

SMILES: COCCn1cc(-n2nnc3cnc(N[C@@H]4CC[C@@H](C(N)=O)C4)nc32)cn1 [A159, (1R,3R)-3-{3-[1-(2-methoxy-ethyl)-1H-pyrazol-4-yl]-3H-[1,2,3]triazolo[4,5-d]-pyrimidin-5-ylamino}-cyclopentanecarboxylic acid amide]
- IC50 [1]: < 1000 nM
- IC50 [2]: < 1000 nM
- IC50 [3]: < 1000 nM

SMILES: NC(=O)[C@@H]1CC[C@@H](Nc2ncc3nnn(-c4ccc(OCCn5cccn5)cc4)c3n2)C1 [A160, (1R,3R)-3-{3-[4-(2-pyrazol-1-yl-ethoxy)-phenyl]-3H-[1,2,3]triazolo[4,5-d]-pyrimidin-5-ylamino}-cyclopentanecarboxylic acid amide]
- IC50 [1]: < 1000 nM
- IC50 [2]: < 1000 nM
- IC50 [3]: < 1000 nM

SMILES: NC(=O)[C@@H]1CC[C@@H](Nc2ncc3nnn(-c4ccc(I)cn4)c3n2)C1 [A177, (1R,3R)-3-[3-(5-iodo-pyridin-2-yl)-3H-[1,2,3]triazolo[4,5-d]pyrimidin-5-ylamino]-cyclopentanecarboxylic acid amide]
- IC50 [1]: < 1000 nM
- IC50 [2]: < 1000 nM
- IC50 [3]: < 1000 nM

SMILES: CCOc1ccc(-n2nnc3cnc(N[C@@H]4CC[C@@H](C(N)=O)C4)nc32)nc1 [A178, (1R,3R)-3-[3-(5-ethoxy-pyridin-2-yl)-3H-[1,2,3]triazolo[4,5-d]pyrimidin-5-ylamino]-cyclopentanecarboxylic acid amide]
- IC50 [1]: < 1000 nM
- IC50 [2]: < 1000 nM
- IC50 [3]: < 1000 nM

SMILES: CCOc1ccc(-n2nnc3cnc(N[C@@H]4CC[C@@H](C(N)=O)C4)nc32)cn1 [A179, (1R,3R)-3-[3-(6-ethoxy-pyridin-3-yl)-3H-[1,2,3]triazolo[4,5-d]pyrimidin-5-ylamino]-cyclopentanecarboxylic acid amide]
- IC50 [1]: < 1000 nM
- IC50 [2]: < 1000 nM
- IC50 [3]: < 1000 nM

SMILES: COc1ccc2cc(-n3nnc4cnc(N[C@@H]5CC[C@@H](C(N)=O)C5)nc43)ccc2n1 [A181, (1R,3R)-3-[3-(2-methoxy-quinolin-6-yl)-3H-[1,2,3]triazolo[4,5-d]pyrimidin-5-ylamino]-cyclopentanecarboxylic acid amide]
- IC50 [1]: < 1000 nM
- IC50 [2]: < 1000 nM
- IC50 [3]: < 1000 nM

SMILES: NC(=O)[C@@H]1CC[C@@H](Nc2ncc3nnn(-c4ccc(-c5cnn(CCO)c5)cc4)c3n2)C1 [A255, (1R,3R)-3-(3-{4-[1-(2-hydroxy-ethyl)-1H-pyrazol-4-yl]-phenyl}-3H-[1,2,3]triazolo[4,5-d]pyridimdin-5-ylamino)-cyclopentanecarboxylic acid amide]
- IC50 ([1]; 10 μM ATP or Km ATP): < 1000 nM
- IC50 [3]: < 1000 nM
- IC50 [4]: 1000 to 5000 nM

SMILES: NC(=O)[C@H]1CC[C@@H](Nc2ncc3nnn(-c4ccc(-c5cnn(CCO)c5)cc4)c3n2)C1 [A258, (1S,3R)-3-(3-{4-[1-(2-hydroxy-ethyl)-1H-pyrazol-4-yl]-phenyl}-3H-[1,2,3]triazolo[4,5-d]pyrimidin-5-ylamino)-cyclopentanecarboxylic acid amide]
- IC50 [1]: < 1000 nM
- IC50 [3]: < 1000 nM
- IC50 [4]: 1000 to 5000 nM
